Measured values published in patent publication US8377945B2, “Small molecule inhibitors of spleen tyrosine kinase (SYK)” (Rigel Pharmaceuticals Inc., priority 2009, dated 2013).

Assays:
[1] = tested on: Human mast cells (CHMC cells); assay: Tryptase release assay (mast cell degranulation induced by anti-IgG FcγR cross-linking); format: cell-based; details: IC50 of tryptase release from human mast cells after anti-IgG stimulation, read-out: LD Tryptase
Method: Compounds were assayed for inhibition of mast cell activation induced by FcγR cross-linking by measuring the activity of tryptase released upon degranulation as follows:
Human mast cells were cultured and differentiated from […] progenitor cell as described in U.S. Patent Publication No. 2005-234049, incorporated herein by reference. For example, 65 μl of various concentrations of the compound to be assayed were prepared in MT (137 mM NaCl, 2.7 mM KCl, 1.8 mM CaCl2, 1.0 mM MgCl2, 5.6 mM Glucose, 20 mM Hepes (pH 7.4), 0.1% Bovine Serum Albumin, (Sigma A4503)) containing 2% MeOH and 1% DMSO, or control buffer were added to duplicate 96-well V-bottom plates. Pelleted and resuspended (in warm MT) CHMC cells (65 μl) were added to each 96-well plate, mixed and incubated for 1 hour at 37° C. 25 μl of 6× anti-IgG Rabbit anti-human IgG, Affinity purified (Bethyl Laboratories Cat No. A80-105A3) final concentration 1 μg/ml, was added to the test wells. MT (25 μl) was added to control wells. After a 60-minute incubation at 37° C., cells and cell debris were pelleted by centrifugation at 1000 rpm for 10 min and tryptase and leukotriene C4 levels were measured.
To measure tryptase levels, 25 μl of supernatant from each well was transferred to a fresh 96-well black bottom plate, to which 100 μl of fresh tryptase substrate solution [(Z-Ala-Lys-Arg-AMC2TFA; Enzyme Systems Products, #AMC-246)] 1:2000 in tryptase assay buffer [0.1 M Hepes (pH 7.5), 10% w/v Glycerol, 10 μM Heparin (Sigma H-4898) 0.01% NaN3] was added. After 30 minute incubation at room temperature, the optical density of the plates is measured at 355 nm/460 nm on a spectrophotometric plate reader. Table 2 provides the IC50 values.

Syk kinase = molecular target: T1, Syk kinase (Homo sapiens, UniProt P43405); assay: ELISA-based Syk kinase assay (phosphorylation of HS1 peptide substrate by isolated Syk kinase); format: biochemical; details: IC50 of Syk kinase inhibition; 2 μM ATP, 2 μM peptide substrate
T1 construct: purchased Millipore 14-314
Method: Compounds were tested for the ability to inhibit Syk kinase catalyzed phosphorylation of a peptide substrate in an assay with isolated Syk kinase.
An assay was carried out in a Costar white 96 well plate (Fisher Scientific, Cat No. 07-200-591) coated overnight with 0.01 mg/ml Neutravidin (Pierce, 100 μl/well) at 4° C. Neutravidin pre-coated 96 well plates were blocked with 2% BSA in PBST buffer for at least 1 hour before starting the assay at room temperature. Serially diluted compound stock solution containing a subject compound was prepared separately in DMSO solution starting from 300 μM and 2 μl of this diluted compound (3% DMSO final concentration) was added directly to neutravidin coated assay plate containing 55.5 μl/well of kinase reaction buffer composed of 20 mM HEPES, pH 7.4, 5 mM MgCl2, 2 mM MnCl2, 1 mM DTT, 0.01% Tween 20 pre-mixed with ATP and kinase substrate (HS1 peptide). Reaction was initiated by adding of 2.5 μl/well Syk kinase (Millipore, Cat No. 14-314) resulting in a final reaction volume of 60 μl and then the reaction was allowed to continue for 30 minutes at room temperature. Final enzyme reaction conditions were 20 mM HEPES, pH 7.4, 5 mM MgCl2, 2 mM MnCl2, 1 mM DTT, 0.01% Tween 20, 0.25 ng Syk, 2 μM ATP, 2 μM peptide substrate (Biotin-EQEDEPEGDYEEVLE-CONH2, SynPep Corporation). After completing the reaction, assay plate was washed three times with PBST and incubated for 1 hour at room temperature with 100 μl/well of phosphopeptide detection antibody solution prepared by mixing 1-1000 diluted mouse anti-pTyr monoclonal antibody (Cell Signal Technology, Cat No. 9411) and 1-1000 diluted goat HRP-conjugated anti-mouse IgG (Jackson Immunoresearch, Cat. No. 115-035-003). Before developing the plate with supersignal ELISA pico chemiluminescent substrate (Pierce), plate was washed three times again with PBST and were read on a SpectraMax M5 microplate reader (Moleculear Devices).

| IC50 [1] | IC50 (Syk kinase) | Compound |
| --- | --- | --- |
| < 10 µM | 0.51 to 2.99 µM | COc1ccc(Nc2c(-c3ccc(OCCN4CCOCC4)cc3)[nH]c3c(C#N)cnn23)cc1OC [Compound 124] |
| < 10 µM | 0.51 to 2.99 µM | COc1ccc(Nc2c(-c3ccc(OC)c(OCC(N)=O)c3)[nH]c3c(C#N)cnn23)cc1OC [Compound 125] |
| < 10 µM | < 0.5 µM | COc1ccc(Nc2c(-c3cc(OC)c(OC)c(OC)c3)[nH]c3c(C#N)cnn23)cc1F [Compound 127] |
| < 10 µM | 0.51 to 2.99 µM | COc1cc(Nc2c(-c3cc(OC)c(OC)c(OC)c3)[nH]c3c(C#N)cnn23)ccc1Cl [Compound 132] |
| < 10 µM | 0.51 to 2.99 µM | COc1cc(-c2[nH]c3c(C#N)cnn3c2Nc2ccc(F)c(OC(C)C)c2)cc(OC)c1OC [Compound 133] |
| < 10 µM | < 0.5 µM | COc1ccc(Nc2c(-c3ccc(OCC(N)=O)c(OC)c3)[nH]c3c(C#N)cnn23)cc1OC [Compound 135] |
| < 10 µM | 0.51 to 2.99 µM | COc1ccc(Nc2c(-c3cc(C)c(OC)c(C)c3)[nH]c3c(C#N)cnn23)cc1OC [Compound 136] |
| < 10 µM | < 0.5 µM | COc1cc(-c2[nH]c3c(C#N)cnn3c2Nc2ccc3c(c2)NC(=O)CO3)cc(OC)c1OC [Compound 137] |
| < 10 µM | 0.51 to 2.99 µM | COc1cc(Nc2c(-c3ccc(OC)c(OCC(N)=O)c3)[nH]c3c(C#N)cnn23)ccc1F [Compound 138] |
| < 10 µM | < 0.5 µM | COc1cc(Nc2c(-c3ccc(OCC(N)=O)c(OC)c3)[nH]c3c(C#N)cnn23)ccc1F [Compound 139] |
| < 10 µM | < 0.5 µM | COc1ccc(Nc2c(-c3ccc(OCC(=O)NC4CC4)c(OC)c3)[nH]c3c(C#N)cnn23)cc1OC [Compound 140] |
| < 10 µM | 0.51 to 2.99 µM | COc1cc(-c2[nH]c3c(C#N)cnn3c2Nc2ccc(OC(C)C)c(Cl)c2)cc(OC)c1OC [Compound 141] |
| < 10 µM | < 0.5 µM | COc1cc(Nc2c(-c3cc(OC)c(OC)c(OC)c3)[nH]c3c(C#N)cnn23)cc(OC)c1 [Compound 142] |
| < 10 µM | < 0.5 µM | COc1cc(-c2[nH]c3c(C#N)cnn3c2Nc2cc(F)c(OC)c(F)c2)cc(OC)c1OC [Compound 143] |
| < 10 µM | 0.51 to 2.99 µM | CCOc1cc(Nc2c(-c3cc(OC)c(OC)c(OC)c3)[nH]c3c(C#N)cnn23)ccc1F [Compound 144] |
| < 10 µM | 0.51 to 2.99 µM | COc1cc(-c2[nH]c3c(C#N)cnn3c2Nc2ccc(F)c(OC3CCCC3)c2)cc(OC)c1OC [Compound 145] |
| 11 to 100 µM | 0.51 to 2.99 µM | COc1cc(-c2[nH]c3c(C#N)cnn3c2Nc2cccc(CNC(=O)c3cccnc3)c2)cc(OC)c1OC [Compound 146] |
| < 10 µM | < 0.5 µM | COc1cc(-c2[nH]c3c(C#N)cnn3c2Nc2cccc(CNC(=O)c3ccccn3)c2)cc(OC)c1OC [Compound 147] |
| 101 to 5000 µM | < 0.5 µM | COc1cc(-c2[nH]c3c(C#N)cnn3c2Nc2cccc(CNC(=O)c3ccncc3)c2)cc(OC)c1OC [Compound 148] |
| < 10 µM | 0.51 to 2.99 µM | COc1cc(-c2[nH]c3c(C#N)cnn3c2Nc2ccc(CNC(=O)c3ccccn3)cc2)cc(OC)c1OC [Compound 149] |
| 11 to 100 µM | 0.51 to 2.99 µM | COc1cc(-c2[nH]c3c(C#N)cnn3c2Nc2ccc(CNC(=O)c3ccncc3)cc2)cc(OC)c1OC [Compound 150] |
| > 5000 µM | 0.51 to 2.99 µM | COc1cc(-c2[nH]c3c(C#N)cnn3c2Nc2ccc(CNC(=O)c3ccc(C#N)nc3)cc2)cc(OC)c1OC [Compound 151] |
| > 5000 µM | < 0.5 µM | COc1cc(-c2[nH]c3c(C#N)cnn3c2Nc2ccc(CNC(=O)c3cccnc3C)cc2)cc(OC)c1OC [Compound 152] |
| < 10 µM | < 0.5 µM | COc1cc(-c2[nH]c3c(C#N)cnn3c2Nc2ccc(CNC(=O)c3cccnc3OC)cc2)cc(OC)c1OC [Compound 153] |
| 11 to 100 µM | 0.51 to 2.99 µM | COc1cc(-c2[nH]c3c(C#N)cnn3c2Nc2ccc(CNC(=O)c3ccc(C)nc3)cc2)cc(OC)c1OC [Compound 154] |
| < 10 µM | 0.51 to 2.99 µM | COc1cc(-c2[nH]c3c(C#N)cnn3c2Nc2ccc(CNC(=O)c3cnccc3C(F)(F)F)cc2)cc(OC)c1OC [Compound 155] |
| < 10 µM | 0.51 to 2.99 µM | COc1cc(-c2[nH]c3c(C#N)cnn3c2Nc2ccc(CNC(=O)c3ccc(C(F)(F)F)nc3)cc2)cc(OC)c1OC [Compound 156] |
| 11 to 100 µM | < 0.5 µM | COc1cc(-c2[nH]c3c(C#N)cnn3c2Nc2ccc(SC)c(F)c2)cc(OC)c1OC [Compound 157] |
